Reference: US4287035A, “Method for producing rapid pH changes” (priority 1979, dated 1981)
Entries after “also recorded” stand apart in the source; their conditions may differ. Where two headings read alike, the source gives them in different places.

Key:
[1] = cited from earlier work
[2] = ground state, cited from earlier work
[3] = cited from earlier work; for pK(S0): ground state
[4] = Comparison of proton transfer time and excited state lifetime; format: physicochemical; conditions: for proton transfer time: excited state; for ability to produce pH change: on electronic excitation
Description: Consider the situation wherein the proton transfer time for either protonation or deprotonation is longer than the excited state lifetime of the molecules in question. In this situation, it is not possible to achieve an acid-base equilibrium during the excited state lifetime. As a result, some of the photons that could be used to produce protons under acid-base equilibrium conditions are no longer available for this purpose because the excitation produced by them is lost in various decay processes from the excited state (see FIG. 1). It will be apparent therefore, that to maximize the pH change for a particular concentration and radiation fluence, it is highly desirable that the proton transfer time be substantially shorter than the excited state lifetime.
It can, however, be readily determined for any compound of interest by means of time resolved spectroscopy of species in the solution. In the case of an acid reaction of the type shown in reaction (1), these would be the acid AH and the anion A^-. Such spectroscopy permits the concentrations of these species to be ascertained.
The requisite spectroscopic measurements are quite straightforward if (a) the excited states of both AH and A^- fluoresce, (b) the fluorescence from the excited states of AH and A^- is sufficiently spectrally shifted that they can be distinguished from one another, and (c) excited state protonation and deprotonation occur with retention of the electronic excitation. […] In those instances where they are not met it is still possible to obtain the necessary information by means of various techniques well known to those versed in the spectroscopic arts. Thus, for example, lack of fluorescence from the excited states of AH and A^- can be overcome by probing with excited-state absorption spectroscopy rather than emission spectroscopy.

[5] = pK values of representative molecules in ground state (S0) and first excited singlet state (S1), Table I; format: physicochemical; conditions: S0 to S1
Description: As shown by the data of the tables set forth in Ireland et al., the phenomenon is quite general and is characteristic of bases as well as acids. Ireland et al. is hereby incorporated by reference. Values of pK for representative molecules in the ground state (S0) and the first excited singlet state (S1) are given in Table I. Deprotonation results in increased acidity whereas protonation increases the basicity of the solution. […] The change in pK may be quite large.

[6] = Excited state protonation/deprotonation of 2-naphthol-6-sulfonate by picosecond laser/streak camera fluorescence; format: physicochemical
Description: A number of runs were made to obtain measurements from which the rates of excited state protonation and deprotonation kf and kb, respectively, could be determined for the reaction: [formula] […] As long as the solution is not so acidic as to make the protonation reaction fast (pH≤3), the rate of excited state proton transfer is simply determined from the risetime of the anion emission.
Since the fluorescence of 2-naphthol-6-sulfonate (λmax ~360 nm) is considerably shifted from that of its anion (λmax ~430 nm), only the anion emission is recorded when 450±10 nm spectral filter 14 is placed between the sample cell 12 and the slit of streak camera 15. FIG. 4 is a plot of the risetime (10-90%) of the emission from the 2-naphthol-6-sulfonate anion versus the initial pH of the solution. Individual points represent the average of four to six separate streak camera exposures. […] At very high acidities, the protonation rate becomes so rapid that the temporal profile of the excited anion emission follows that of the protonated species.
By measuring the time history of both anionic and acidic species under a variety of experimental conditions and using a kinetic scheme which includes terms for the fluorescence lifetimes and quenching, the complete kinetics of the excited state protonation deprotonation are readily obtained. For 2-naphthol-6-sulfonate, kf =(1.02±0.3)×10^9 sec^-1 and kb =(9.0±3)×10^10 l-mole^-1 -sec^-. The solid line of FIG. 4 is a fit using a kinetic model with kf and kb having these values.

[7] = pH jump (more acidic) by 266 nm irradiation of 2-naphthol-6-sulfonate solution
Description: A single 30 psec pulse 4 at 1064 nm is extracted from the pulse train of mode-locked Nd:YAG laser 1 by means of Blumlein electronic switchout unit 3. The flowing dye 2 serves to mode lock laser 1. A second harmonic of pulse 4 is generated at 532 nm in KDP crystal 5.
Wavelengths other than 532 nm are then removed from pulse 4 by means of spectral filters 6. The 532 nm pulse is reflected from mirror 7 through ADP crystal 8 where it in turn is frequency doubled to produce the fourth harmonic at 266 nm.
Beam splitter 11 directs a portion of the 266 nm pulse to energy meter 20. […] The beam size on sample 12 is ~0.1 mm. […] Appropriate filters 14 are used to isolate various emission bands.
The pH of the solutions was adjusted by addition of reagent grade HCl or NaOH and was measured on a pH meter (Fisher Model 230) accurate to about 0.1 pH unit.

[8] = Excited state protonation of coumarin 102 by time-resolved fluorescence; format: physicochemical
Description: (§1) A proton attaches at the carbonyl site by the reaction [formula] Here Kp is the protonation rate constant and kdp is the deprotonation rate constant.
(§2) Experimental runs utilized laser grade coumarin 102 (Eastman) which was maintained at a concentration of 1.0×10^-3 M in a 1:1 H2 O:ethanol solvent. Deionized, distilled water and reagent grade ethanol were used for all of the runs. The solution pH was varied by the addition of reagent grade HCl and measured to an accuracy of 0.05 pH unit with a pH meter (Markson 90). The apparatus of FIG. 3 was modified to the extent that ADP crystal 8 was replaced by a KDP sum frequency generator to produce […] radiation which excited the sample. Filter 9 was either a 435 nm interference filter or a Corning 2-62 filter to isolate fluorescence from coumarin 102 and its cation, respectively.
The experimental runs were made to obtain measurements of the time history of both species under a variety of experimental conditions.

[9] = pH jump (more basic) by irradiation of coumarin 102 solution; format: physicochemical
Description: as §1, §2

[10] = reaction as drawn in the line of Table II
[11] = 1.0×10^-3 M in water, 266 nm, 20 psec pulse

With O=c1c2ccccc2oc2ccccc12 [Xanthone] as the compound, how does the triplet state lifetime [1] read?
Its triplet state lifetime is “several to tens of milliseconds”.

What about the “pK(S0)” value [2, 10] of the same compound?
The value was -4.1.

With c1ccc(N=Nc2ccccc2)cc1 [Azobenzene] as the compound, how does the “pK(S0)” value [2, 10] read?
Its value is -2.90.

What does the source list for Oc1ccc2ccccc2c1 [2-Naphthol]?
pK(S0) [3]: 9.5; excited state lifetime [4]: ~ 6×10^-9 sec; proton transfer time [4]: 2e-08 s; ability to produce pH change [4]: cannot; also recorded: the amount of the change is substantially less than that which can be achieved with 2-naphthol-6-sulfonate

Which “pK(S0)” value [2, 10] does the source give for c1ccc2ccccc2c1 [Naphthalene] here?
The value was -4.0.

With c1ccc2nc3ccccc3cc2c1 [Acridine] as the compound, how does the “pK(S0)” value [2, 10] read?
The value was 5.5.

Which “pK change upon excitation” value [5] does the source give for c1ccc2c(c1)Cc1ccccc1-2 [Fluorene, reference compound] here?
The value was 29.

For c1ccc2c(c1)ccc1ccccc12 [Phenanthrene, reference compound], which “acidity/basicity in ground and excited state” value ([3]; ground state versus first excited singlet state) is on record?
The value was “becomes less acidic (more basic) in the excited state”.

What about the “pK(S0)” value [3] of the same compound?
Its value is -3.5.

With O=S(=O)(O)c1ccc2cc(O)ccc2c1 [2-Naphthol-6-Sulfonate] as the compound, how does the “results with freshly prepared and day-old solutions” value ([6]; 1.0×10^-3 M in water) read?
The value was “identical”.

What about the “rate of excited state deprotonation/proton transfer, kf” value [6, 11] of the same compound?
The value was “(1.02±0.3)×10^9 sec^-1”.

What about the “rate of excited state protonation, kb” value [6, 11] of the same compound?
Its value is “(9.0±3)×10^10 l-mole^-1 -sec^-”.

And the “risetime (10-90%) of anion emission versus initial pH” value ([6]; 450±10 nm, initial pH varied)?
The value was “As the solution becomes more acidic, the risetime becomes more rapid”.

And the “pK(S0)” value [3]?
Its value is 9.1.

What about the “excited state acid-base equilibrium” value [7] of the same compound?
Its value is “excited state acid-base equilibrium is achieved”.

What about the excited state lifetime [7] of the same compound?
The excited state lifetime was “about 10 nsec”.

What about the “increase in H3O^+” value ([7]; 20 psec, 266 nm pulse, typically 30 μJ) of the same compound?
Its value is “more than 10^-4 M”.

And the proton transfer time ([7]; excited state)?
The proton transfer time was “less than 1 nsec”.

And the excited state lifetime [4]?
Its excited state lifetime is 1e-08 s.

What about the proton transfer time [4] of the same compound?
Its proton transfer time is “less than 1×10^-9 sec”.

What about the “ability to produce pH change” value [4] of the same compound?
The value was “can be used to produce large and very rapid pH modulation”.

And the “pK change upon excitation” value [5]?
The value was 7.

For O=C(c1ccccc1)c1ccccc1 [benzophenone], which triplet state lifetime [1] is on record?
Its triplet state lifetime is “several to tens of milliseconds”.

Which “deprotonation during excited state lifetime” value ([8]; 1:1 H2O:ethanol) does the source give for Cc1cc(=O)oc2c3c4c(cc12)CCCN4CCC3 [coumarin 102] here?
Its value is “very small”.

What about the “excited state acid-base equilibrium” value ([8]; 1:1 H2O:ethanol) of the same compound?
Its value is “excited state acid-base equilibrium is not achieved”.

And the excited state lifetime ([8]; 1.0×10^-3 M in 1:1 H2O:ethanol)?
The excited state lifetime was 3.3±0.3 nsec.

What about the “excited state protonation rate constant kp” value ([8]; 1.0×10^-3 M in 1:1 H2O:ethanol, 355 μm (so in the source) excitation) of the same compound?
The value was “(1.6 ±0.3)×10^10 l-mole^-1 -sec^-1”.

And the “quenching of excited states” value ([9]; concentrations near 10^-3 M)?
The value was “no evidence of quenching of excited states”.

And the “pH after pH jump” value ([9]; initial pH 4, 355 nm pulses >1 mJ)?
Its value is 4.1.

For Nc1ccc2ccccc2c1 [2-Naphthylamine], which “pK(S0)” value [2, 10] is on record?
Its value is ≥ 14.

What about the “pK(S0)” value ([2]; second 2-Naphthylamine line, reaction drawing 7) of the same compound?
The value was 4.1.
